{"source": "patent US5591734A", "about": "“17-(3-furyl)-5β, 14β-androstane derivatives active on the cardiovascular system, processes for their preparation and pharmaceutical compositions containing same” (Sigma-Tau Industrie Farmaceutiche Riunite S.p.A., priority 1992, dated 1997)", "key": {"[1]": {"target": "T1, purified Na^+,K^+ -ATPase (Homo sapiens, UniProt P05023)", "T1 construct": "receptor purified according to Jorghensen (Jorghensen P., BBA, 1974, 356, 36); from tissue; kidney outer medulla inferred from the cited Jorgensen method", "assay": "biochemical", "text": "(§1) To test the affinity for the receptor site of the Na^+,K^+ -ATPase and the inhibitory activity on the enzyme, the following tests were used: a) displacement of the specific ^3 H-ouabain binding from the Na^+,K^^+ -ATPase receptor purified according to Jorghensen (Jorghensen P., BBA, 1974, 356, 36) and Erdmann (Erdmann E. et al., Arzneim. Forsh., 1984, 34, 1314); b) inhibition of the activity of the purified Na^+,K^+ -ATPase measured as % of hydrolysis of ^32 P-ATP in presence and in absence of the tested compound (Mall F. et al., Biochem. Pharmacol., 1984, 33, 47)."}, "[2]": {"target": "T2, Na^+,K^+ -ATPase receptor (Homo sapiens, UniProt P05023)", "T2 construct": "receptor purified according to Jorghensen (Jorghensen P., BBA, 1974, 356, 36); from tissue; kidney outer medulla inferred from the cited Jorgensen method", "assay": "displacement of the specific ^3 H-ouabain binding from the purified Na^+,K^+ -ATPase receptor", "conditions": "^3 H-ouabain displacement, read-out: Binding ^3 H-Ouab. Displacement log IC50 (converted)", "text": "as §1"}, "[3]": {"tested_on": "spontaneous hypertensive rats of the Milan (MHS)", "assay": "antihypertensive activity in spontaneous hypertensive rats (MHS), indirect tail-cuff method", "type": "in vivo, rat", "conditions": "10 mg/Kg/os daily for ten days in Methocel 0.5% w/v, 7 rats; for SBP (SYSTOLIC BLOOD PRESSURE FALL IN SPONTANEOUS HYPERTENSIVE RATS (MHS)): controls 172 +/- 2.0; for HR (heart rate): controls 328 +/- 8.6"}, "[4]": {"conditions": "purified Na^+,K^+ -ATPase, ^32 P-ATP hydrolysis, read-out: Inhibitory Activity log IC50 (converted)"}}, "note": "Structures can show the parent of a compound that is named as a salt. Where two headings read alike, the source gives them in different places."}
{"smiles": "CNCCO[C@H]1CC[C@@]2(C)[C@H](CC[C@@H]3[C@@H]2CC[C@]2(C)[C@@](O)(c4ccoc4)CC[C@]32O)C1", "note": "[Comp. I-x, 3β-(2-Methylaminoethoxy)-17β-(3-furyl)-5β-androstane 14β,17α-diol]", "values": [{"measurement": "IC50", "setting": "[1]; [4]", "result": 10, "unit": "µM"}, {"measurement": "IC50", "setting": "[2]", "result": 0.501, "unit": "µM"}]}
{"smiles": "C[C@]12CC[C@H](SCCCN)C[C@H]1CC[C@@H]1[C@@H]2CC[C@@]2(C)[C@@]13O[C@@H]3C[C@]2(O)c1ccoc1", "note": "[Comp. I-r, 3β-(3-Aminopropylthio)-14β,15β-epoxy-17β-(3-furyl)-5β-androstan-17α-ol oxalate]", "values": [{"measurement": "IC50", "setting": "[1]; [4]", "result": 31.6, "unit": "µM"}, {"measurement": "IC50", "setting": "[2]", "result": 3.98, "unit": "µM"}, {"measurement": "SBP (SYSTOLIC BLOOD PRESSURE FALL IN SPONTANEOUS HYPERTENSIVE RATS (MHS))", "setting": "[3]", "result": "154 +/- 2.4 mm Hg"}, {"measurement": "HR (heart rate)", "setting": "[3]", "result": "320 +/- 9.6 beats/min."}]}
{"smiles": "C[C@]12CC[C@H](O)C[C@H]1CC[C@@H]1[C@@H]2CC[C@]2(C)[C@@](O)(c3ccnnc3)CC[C@]12O", "note": "[Comp. I-n, 17β-(4-Pyridazinyl)-5β-androstane-3β,14β,17α-triol]", "values": [{"measurement": "IC50", "setting": "[1]; [4]", "result": 25.1, "unit": "µM"}, {"measurement": "IC50", "setting": "[2]", "result": 2.51, "unit": "µM"}]}
{"smiles": "C[C@]12CCC(=O)C[C@H]1CC[C@@H]1[C@@H]2CC[C@]2(C)[C@@](O)(c3ccoc3)CC[C@]12O", "note": "[Comp. I-j]", "values": [{"measurement": "IC50", "setting": "[1]; [4]", "result": 79.4, "unit": "µM"}, {"measurement": "IC50", "setting": "[2]", "result": 3.98, "unit": "µM"}]}
{"smiles": "C[C@]12CC[C@H](OCCN3CCCC3)C[C@H]1CC[C@@H]1[C@@H]2CC[C@]2(C)[C@@](O)(c3ccoc3)CC[C@]12O", "note": "[Comp. I-d, 3β-(2-(1-Pyrrolidinyl)ethoxy)-17β-(3-furyl)-5β-androstane-14β,17α-diol]", "values": [{"measurement": "IC50", "setting": "[1]; [4]", "result": 15.8, "unit": "µM"}, {"measurement": "IC50", "setting": "[2]", "result": 0.631, "unit": "µM"}, {"measurement": "SBP (SYSTOLIC BLOOD PRESSURE FALL IN SPONTANEOUS HYPERTENSIVE RATS (MHS))", "setting": "[3]", "result": "158 +/- 2.5 mm Hg"}, {"measurement": "HR (heart rate)", "setting": "[3]", "result": "325 +/- 9.3 beats/min."}]}
{"smiles": "C[C@]12CC[C@H](OCCOCCN3CCCC3)C[C@H]1CC[C@@H]1[C@@H]2CC[C@]2(C)[C@@](O)(c3ccoc3)CC[C@]12O", "note": "[Comp. I-w, 3β-(2-(2-(1-Pyrrolidinyl)ethoxy)ethoxy)-17β-(3-furyl)-5β-androstane-14β,17α-diol]", "values": [{"measurement": "IC50", "setting": "[1]; [4]", "result": 3.98, "unit": "µM"}, {"measurement": "IC50", "setting": "[2]", "result": 0.631, "unit": "µM"}]}
{"smiles": "C[C@]12CC[C@H](O)C[C@H]1CC[C@@H]1[C@@H]2CC[C@]2(C)[C@@](O)(C3=CC(=O)OC3)CC[C@]12O", "note": "[Ref. Comp., 3β,14β,17α-trihydroxy-5β-card-20(22)-enolide, reference compound]", "values": [{"measurement": "HR (heart rate)", "setting": "[3]", "result": "334 +/- 11.7 beats/min."}]}
{"smiles": "C[C@]12CCC(=NN=C(N)N)C[C@H]1CC[C@@H]1[C@@H]2CC[C@]2(C)[C@@](O)(c3ccoc3)CC[C@]12O", "note": "[Comp. I-k, 3-Guanidinoimino-17β-(3-furyl)-5β-androstane-14β,17α-diol]", "values": [{"measurement": "IC50", "setting": "[1]; [4]", "result": 15.8, "unit": "µM"}, {"measurement": "IC50", "setting": "[2]", "result": 1, "unit": "µM"}]}
{"smiles": "C[C@]12CC[C@H](OCCCN)C[C@H]1CC[C@@H]1[C@@H]2CC[C@]2(C)[C@@](O)(c3ccoc3)CC[C@]12O", "note": "[Comp. I-c, 3β-(3-Aminopropoxy), 17β-(3-furyl)-5β-androstane-14β,17α-diol]", "values": [{"measurement": "IC50", "setting": "[1]; [4]", "result": 7.94, "unit": "µM"}, {"measurement": "IC50", "setting": "[2]", "result": 0.501, "unit": "µM"}]}
{"smiles": "C[C@]12CC[C@H](OCCCNC(=N)N)C[C@H]1CC[C@@H]1[C@@H]2CC[C@]2(C)[C@@](O)(c3ccoc3)CC[C@]12O", "note": "[Comp. I-y, 3β(3-Guanidinopropoxy)-17β-(3-furyl)-5β-androstane-14β,17α-diol]", "values": [{"measurement": "IC50", "setting": "[1]", "result": 6.31, "unit": "µM"}, {"measurement": "IC50", "setting": "[2]", "result": 0.501, "unit": "µM"}]}
{"smiles": "C[C@]12CC[C@H](OCCO)C[C@H]1CC[C@@H]1[C@@H]2CC[C@]2(C)[C@@](O)(c3ccoc3)CC[C@]12O", "note": "[Comp. I-b, 3β-(2-Hydroxyethoxy)-17β-(3-furyl)-5β-androstane-14β,17α-diol]", "values": [{"measurement": "IC50", "setting": "[1]; [4]", "result": 25.1, "unit": "µM"}, {"measurement": "IC50", "setting": "[2]", "result": 3.16, "unit": "µM"}]}
{"smiles": "C[C@]12CC[C@H](O)C[C@H]1CC[C@@H]1[C@@H]2CC[C@]2(C)[C@@](O)(c3ccoc3)CC[C@]12O", "note": "[Comp. I-a, 17β(3-Furyl)-5β-androstane-3β,14β,17α-triol]", "values": [{"measurement": "IC50", "setting": "[1]; [4]", "result": 31.6, "unit": "µM"}, {"measurement": "IC50", "setting": "[2]", "result": 1.58, "unit": "µM"}, {"measurement": "SBP (SYSTOLIC BLOOD PRESSURE FALL IN SPONTANEOUS HYPERTENSIVE RATS (MHS))", "setting": "[3]", "result": "149 +/- 4.3 mm Hg"}, {"measurement": "HR (heart rate)", "setting": "[3]", "result": "318 +/- 10.2 beats/min."}]}
{"smiles": "CO[C@]1(c2ccoc2)CC[C@]2(O)[C@@H]3CC[C@@H]4C[C@@H](OCCN5CCCC5)CC[C@]4(C)[C@H]3CC[C@]12C", "note": "[Comp. I-f, 3β-(2-(β1-Pyrrolidinyl)ethoxy)-17β-(3-furyl)-17α-methoxy-5β-androstan-14β-ol]", "values": [{"measurement": "IC50", "setting": "[1]; [4]", "result": 25.1, "unit": "µM"}, {"measurement": "IC50", "setting": "[2]", "result": 5.01, "unit": "µM"}]}
{"smiles": "C[C@]12CC[C@H](OCC(N)CN)C[C@H]1CC[C@@H]1[C@@H]2CC[C@]2(C)[C@@](O)(c3ccoc3)CC[C@]12O", "note": "(stereo partly drawn) [Comp. I-z, 3β-(2,3-Diaminopropoxy)-17β-(3-furyl)-5β-androstane-14β,17α-diol]", "values": [{"measurement": "IC50", "setting": "[1]", "result": 5.01, "unit": "µM"}, {"measurement": "IC50", "setting": "[2]", "result": 0.631, "unit": "µM"}]}
